From patent publication US5880258A (dated 1999)
Entries after “also recorded” stand apart in the source; their conditions may differ. *1 amine or outer side, *2 acyl side, *3 side chain or, on linkers, in order; H or OH if unused. Where a SMILES comes first, the peptide text is derived from it. Where no end group is shown, it is not given here. [ ]: non-standard residue; d: D form. sY = N[C@@H](Cc1ccc(OS(=O)(=O)O)cc1)C(=O)O; Suc = O=C(CCC(=O)[*:2])[*:1]

Experiments:
thrombin [1] = target: T1, thrombin (Homo sapiens, UniProt P00734); test: anti-thrombin activity; clotting assay (coagulation time with fibrinogen as substrate); type: biochemical; design: 100 μl of human-thrombin prepared at 10 NIH units/ml in aforesaid buffer
Description: Measurement of anti-thrombin activity was done by looking at anti-coagulant activity as an index using fibrinogen as the substrate. That is, the compounds were dossolved in 200 μl of 0.1 mM Tris-HCl buffer (pH7.5) containing 0.1% polyethyleneglycol-6000, 100 μl of human-thrombin prepared at 10 NIH units/ml in aforesaid buffer, were added 200 μl of human-fibrinogen (Sigma) prepared at 6 mg/ml in aforesaid tris-hydrochloride buffer were added, and the coagulation time of the reaction mixtures were measured. For measuring of coagulation times, coagulation time analyzer (Amelung KC10A) was used. Obtained values were converted into units by using a previously prepared thrombin standard curve. Graphs were prepared by plotting the converted values on the vertical axis, and the concentrations of the compounds on the horizontal axis. In the graphs, the thrombin unit was defined as 100 at a compound concentration of 0. The concentration of compounds corresponding to 50 units were defined as 50% inhibitory concentrations of compounds.

[2] = Prolongation of bleeding time (tail vein puncture wound); type: in vivo; details: wound 5 minutes after administration, male mice
Description: Samples were injected into male mice (20-25 g) via their tail vein under anaesthesia using pentobarbital (40 mg/kg i.p.). A puncture wound was made by inserting a 21G needle (outer diameter 0.85 mm) into the other side of the tail vein 5 minutes after administration of test compounds, and the bleeding time of the wound was measured.
A filter paper was put on the wound with changes every 15 seconds. Bleeding time is defined as the time required until no red spot is observed on the filter paper.

thrombin [3] = target: T1, thrombin; test: Inhibitory action against thrombin induced death; type: in vivo, mice; details: score 0 normal, 1 loss of roll over reflection, 2 death within 20 minutes
Description: To male mice (20-25 g), in non-anaesthesia, thrombin (15 NIH units/10 g) was administered intravenously, and the anti-thrombin activity of the tested compound was evaluated by observing the disappearance of roll over reflection and death as indexes. All the tested compounds were dissolved in saline and 0.05 ml/10 g were administered intravenously 5 min prior to the thrombin injection.

α-chymotrypsin = α-chymotrypsin in 0.1M sodium-phoshate buffer (pH7.0); details: 37° C., up to 24 hours
[4] = tested on: carboxypeptidase Y (product of Boehringer Mannheim); test: carboxypeptidase Y in 0.1M sodium-phoshate buffer (pH7.0); details: 37° C., up to 30 min.
[5] = tested on: V8 protease (product of Sigma); test: V8 protease in 0.1M sodium-phoshate buffer (pH7.0); details: 37° C., up to 1 hour

Q: Which results are given for CC[C@H](C)[C@H](NC(=O)[C@@H]1CCCN1C(=O)[C@H](CCC(=O)O)NC(=O)[C@H](Cc1ccccc1)NC(=O)[C@H](CC(=O)O)NC(=O)CNC(=O)CCC(=O)O)C(=O)N1CCC[C@H]1C(=O)N[C@@H](CCC(=O)O)C(=O)N[C@@H](Cc1ccc(OS(=O)(=O)O)cc1)C(=O)N[C@@H](Cc1ccc(OS(=O)(=O)O)cc1)C(=O)N[C@@H](CC(C)C)C(=O)N[C@@H](CCC(N)=O)C(=O)O [Sulfated form of (C), Suc--Gly--Asp--Phe--Glu--Pro--Ile--Pro--Glu--Tyr(SO3 H)--Tyr(SO3 H)--Leu--Gln--OH] (Suc-GDFEPIPE[sY][sY]LQ-OH)?
A: Potency (thrombin [1]; calculated using the definition that HV-1 (54-65) potency is 1): 88.94; IC50 (thrombin [1]; concentration corresponding to 50 thrombin units, human-thrombin 10 NIH units/ml, human-fibrinogen 6 mg/ml, read-out: 50% Inhibition Concentration (converted)): 42.9 nM; Bleeding time ([2]; 10 mg/kg via tail vein): 277.5 ± 31.5 s; Bleeding time ([2]; 20 mg/kg via tail vein): 366.0 ± 23.0 s; Bleeding time ([2]; 50 mg/kg via tail vein): 432.0 ± 33.3 s; Score (thrombin [3]; 20 mg/kg i.v. 5 min before thrombin 15 NIH units/10 g): 1.2; Score (thrombin [3]; 50 mg/kg i.v. 5 min before thrombin 15 NIH units/10 g): 0.8; Score (thrombin [3]; 100 mg/kg i.v. 5 min before thrombin 15 NIH units/10 g): 0.6

Q: Which cleaved bond (α-chymotrypsin) does the source give for GDFEEIPYYYLQ here?
A: Tyr-Tyr

Q: Which results are given for “Gly--Asp--Phe--Glu--Glu--Ile--Pro--Glu--Tyr--Tyr(SO3 H)--Leu--Gln”?
A: cleaved bond [4]: Leu-Gln; also recorded: Tyr(SO3 H)-Leu; not cleaved [4]: no Tyr was released (30 min.); cleaved bond [5]: Glu-Tyr
